Reference: patent US6403602B1 (priority 1997, dated 2002)
Where a name gives a salt, the structure may show the parent alone. Read-outs that look alike come from different tables or passages of the source.

Tests used:
[1] = test system: electrically stimulated guinea pig ileum; test: tissue or blood; assay type: cell-based
kappa3 receptors = assay type: binding, guinea pig; details: read-out: Ki κ3 [^3H]NalBzoH
delta receptors [2] = target: T1, delta receptors (Cavia porcellus, UniProt A0A286XTF2); test: biochemical; assay type: binding, guinea pig
T1 construct: The brains were then homogenized in 50 mM Tris HCl, buffer pH 7.7, using a Polytron; from tissue; host or cells: guinea pig brain homogenate (membrane pellet)

kappa receptors = target: T2, kappa receptors (Cavia porcellus, UniProt P41144); assay type: cell-based, guinea pig
T2 construct: The longitudinal muscle with the myenteric plexus attached was gently separated from the underlying circular muscle; from tissue; host or cells: guinea pig ileum longitudinal muscle with myenteric plexus

[3] = test system: electrically stimulated mouse vas deferens; test: tissue or blood; assay type: cell-based
mu receptors = assay type: cell-based, guinea pig
κ2 sites = assay type: binding, guinea pig
delta receptors [4] = target: T3, delta receptors (Mus musculus, UniProt P32300); assay type: cell-based
T3 construct: The vas deferens from Swiss-Webster mice (30-35 g) were prepared as described by Hughes et al; from tissue; host or cells: mouse vas deferens (Swiss-Webster)

mu opioid receptors = mu opioid receptors (Cavia porcellus, UniProt A0ACM8Q262); assay type: binding, guinea pig; details: read-out: Ki μ [^3H]DAMGO
[5] = read-out: Guinea Pig Ileum IC50
[6] = read-out: Mouse Vas Deferens IC50
[7] = Cavia porcellus, read-out: Guinea Pig Ileum IC50 (nM)
[8] = Mus musculus, read-out: Mouse Vas Deferens IC50 (nM)
[9] = read-out: IC50 (nM), Guinea Pigs Ileum
[10] = read-out: IC50 (nM), Mouse Vas Deferens

T3 sequence (P32300 whole entry): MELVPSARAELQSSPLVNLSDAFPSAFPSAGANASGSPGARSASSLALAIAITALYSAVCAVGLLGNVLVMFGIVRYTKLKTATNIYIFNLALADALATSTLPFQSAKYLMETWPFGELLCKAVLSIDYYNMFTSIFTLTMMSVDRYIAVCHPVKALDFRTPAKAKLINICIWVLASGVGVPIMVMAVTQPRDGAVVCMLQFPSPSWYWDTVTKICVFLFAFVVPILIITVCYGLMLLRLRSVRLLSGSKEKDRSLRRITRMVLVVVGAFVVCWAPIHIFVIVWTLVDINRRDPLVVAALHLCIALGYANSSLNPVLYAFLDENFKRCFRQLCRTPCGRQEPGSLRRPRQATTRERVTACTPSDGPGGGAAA
T2 sequence (P41144 whole entry): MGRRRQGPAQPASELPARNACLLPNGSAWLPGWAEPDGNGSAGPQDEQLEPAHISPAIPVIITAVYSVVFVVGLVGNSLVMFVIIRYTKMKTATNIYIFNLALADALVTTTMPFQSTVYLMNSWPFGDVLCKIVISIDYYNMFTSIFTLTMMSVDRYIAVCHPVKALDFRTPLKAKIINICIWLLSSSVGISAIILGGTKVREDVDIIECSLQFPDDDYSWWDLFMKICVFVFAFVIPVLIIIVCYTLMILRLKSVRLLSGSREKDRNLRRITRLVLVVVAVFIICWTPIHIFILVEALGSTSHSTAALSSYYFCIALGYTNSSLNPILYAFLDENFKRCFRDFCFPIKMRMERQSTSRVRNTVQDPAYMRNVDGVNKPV
T1 sequence (A0A286XTF2 1-366): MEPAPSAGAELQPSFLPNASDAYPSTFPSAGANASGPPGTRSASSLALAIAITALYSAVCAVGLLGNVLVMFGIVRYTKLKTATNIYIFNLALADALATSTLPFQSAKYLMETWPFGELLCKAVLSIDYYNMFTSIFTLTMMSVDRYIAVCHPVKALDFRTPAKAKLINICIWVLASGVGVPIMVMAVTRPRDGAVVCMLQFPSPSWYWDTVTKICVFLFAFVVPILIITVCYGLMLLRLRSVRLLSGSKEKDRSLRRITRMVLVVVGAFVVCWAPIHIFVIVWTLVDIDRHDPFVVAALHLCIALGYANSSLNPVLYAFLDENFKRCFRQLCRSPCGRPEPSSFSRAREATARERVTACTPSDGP
Chain of mu opioid receptors (A0ACM8Q262 1-400): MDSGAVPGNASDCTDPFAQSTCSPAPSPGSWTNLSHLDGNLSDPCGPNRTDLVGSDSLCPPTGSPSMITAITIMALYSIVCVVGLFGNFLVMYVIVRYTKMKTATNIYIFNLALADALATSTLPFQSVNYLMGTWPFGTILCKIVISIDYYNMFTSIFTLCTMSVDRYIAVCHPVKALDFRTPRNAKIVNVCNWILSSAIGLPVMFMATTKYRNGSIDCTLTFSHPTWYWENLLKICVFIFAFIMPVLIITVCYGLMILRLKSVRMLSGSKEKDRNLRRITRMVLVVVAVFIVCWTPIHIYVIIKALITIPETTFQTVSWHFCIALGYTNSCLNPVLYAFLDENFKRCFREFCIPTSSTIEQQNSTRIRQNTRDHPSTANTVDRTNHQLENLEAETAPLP

CC(C)C[C@@H](NC(=O)[C@H](Cc1ccccc1)NC(=O)CNC(=O)[C@@H](C)NC(=O)[C@@H](N)Cc1ccc(O)cc1)C(=O)O [DADLE-OH]
IC50 [1, 5]: 13.4 nM | Ki (kappa3 receptors): 692 nM | Ki (delta receptors [2]): 0.3 nM | Guinea Pig Ileum DR with Nor-BNI (kappa receptors): 1.53 | Guinea Pig Ileum Ke of Nor-BNI (kappa receptors): 38.13 | IC50 [3, 6]: 1.6 nM | Guinea Pig Ileum DR with CTAP (mu receptors): 4.33 | Guinea Pig Ileum Ke of CTAP (mu receptors): 30.58 | IC50 (κ2 sites): > 10000 nM

Dynorphin (1-17)-OH
Ki (kappa3 receptors): 5.1 nM | IC50 (κ2 sites): 29.5 nM

Oc1ccc2c3c1O[C@H]1[C@@H](O)C=C[C@H]4[C@@H](C2)NCC[C@@]341 [Normorphine]
IC50 [1, 7]: 47.3 nM | Mouse Vas Deferens DR with Naltrindole (delta receptors [4]): 1.06 | Mouse Vas Deferens Ke of Naltrindole (delta receptors [4]): 8.38 ± 0 | Mouse Vas Deferens Ratio (Naltrindole) (delta receptors [4]): 0.0025 | Guinea Pig Ileum DR with Nor-BNI (kappa receptors): 1.90 | Guinea Pig Ileum Ke of Nor-BNI (kappa receptors): 26.47 | Guinea Pig Ileum Ratio (Nor-BNI) (kappa receptors): 0.002 | IC50 [3, 8]: 512 nM | Guinea Pig Ileum DR with CTAP (mu receptors): 3.02 | Guinea Pig Ileum Ke of CTAP (mu receptors): 50.25 | Guinea Pig Ileum Ratio (CTAP) (mu receptors): 0.500

CN1CC[C@]23c4c5ccc(O)c4O[C@H]2[C@@H](O)CC[C@H]3[C@H]1C5 [Dihydromorphine, 7,8-Dihydromorphine]
IC50 [1, 7]: 42.4 nM | IC50 [3, 8]: 8.11 nM | Guinea Pig Ileum DR with CTAP (mu receptors): 12.46 | Guinea Pig Ileum Ke of CTAP (mu receptors): 17.46

Dynorphin (1-13)-NH2
Ki (kappa3 receptors): 4.1 nM | IC50 (κ2 sites): 24.6 nM

O=C1CC[C@@]2(O)[C@H]3Cc4ccc(O)c5c4[C@@]2(CCN3CC2CC2)[C@H]1O5 [Naltrexone-HCl]
Ki (kappa3 receptors): 3.8 nM | IC50 (κ2 sites): 230 nM

Dynorphin A (1-17)
IC50 [1, 9]: 0.95 nM | IC50 [3, 10]: 29.3 nM | DR with CTAP (mu receptors): 1.52 | Ke of CTAP (mu receptors): 209.89

3-O-benzoyl-7,8-dihydromorphine-6-O-sulfate [NIDA # 20,275]
Ki (mu opioid receptors): 61.8 nM | IC50 [1, 5]: 649 ± 131 nM | Ki (delta receptors [2]; read-out: Ki δ [^3H]Cl-DPDPE): 1600 nM | Guinea Pig Ileum DR with CTAP (mu receptors): 4.03 ± 1.51 | Guinea Pig Ileum Ke of CTAP (mu receptors): 37.64 ± 18.74 | IC50 (κ2 sites): > 10000 nM

CCC12CCN(CC3(O)CC3)C(Cc3ccc(O)cc31)C2(C)C (single isomer, unassigned; (-)) [(−)Bremazocine]
Ki (mu opioid receptors): 0.1 nM | IC50 [1, 9]: 0.067 nM | Ki (kappa3 receptors): 0.1 nM | Ki (delta receptors [2]; read-out: Ki δ [^3H]Cl-DPDPE): 0.3 nM | DR with CTAP (mu receptors): 0.83 | IC50 (κ2 sites): 2.2 nM

CC1(C)SSC(C)(C)[C@@H](NC(=O)[C@@H](N)Cc2ccc(O)cc2)C(=O)NCC(=O)N[C@@H](Cc2ccc(Cl)cc2)C(=O)N[C@H]1C(=O)O [DPDPE-Cl]
Ki (kappa3 receptors): 1030 nM | Ki (delta receptors [2]; read-out: Ki δ [^3H]Cl-DPDPE): 0.3 nM | IC50 (κ2 sites): > 10000 nM

Dynorphin B-OH
Ki (kappa3 receptors): 14.2 nM | IC50 (κ2 sites): 70 nM

(−) Cyclazocine
Ki (mu opioid receptors): 0.1 nM | IC50 [1, 5]: 1.05 nM | Ki (kappa3 receptors): 0.2 nM | Guinea Pig Ileum DR with CTAP (mu receptors): 1.00 ± 0.00 | IC50 (κ2 sites): 17.3 nM

Dynorphin B
IC50 [1, 9]: 4.4 nM | IC50 [3, 10]: 39.1 nM | DR with CTAP (mu receptors): 1.08 | Ke of CTAP (mu receptors): 344.83

CN1CC[C@]23c4c5ccc(OS(=O)(=O)O)c4O[C@H]2[C@@H](O)C=C[C@H]3[C@H]1C5 [NIDA # 20,268, morphine-3-O-sulfate]
Ki (kappa3 receptors): 1690 nM | Ki (delta receptors [2]): > 10000 nM | IC50 (κ2 sites): > 10000 nM

C[N+]1(C)CC[C@]23c4c5ccc(OC(=O)c6ccccc6)c4O[C@H]2[C@@H](OS(=O)(=O)[O-])C=C[C@H]3[C@H]1C5 [NIDA # 20,274, 3-O-Benzoyl-N-methylmorphinium-6-O-sulfate]
inhibition at 100 µM ([1]; Cavia porcellus, read-out: Guinea pig ileum maximum inhibition): 38% | Ki (kappa3 receptors): > 10000 nM | Ki (delta receptors [2]): > 10000 nM | IC50 (κ2 sites): > 10000 nM

Dynorphin(1-9)-OH
IC50 [1, 5]: 4.69 nM | Ki (kappa3 receptors): 20.2 nM | Mouse Vas Deferens DR with Naltrindole (delta receptors [4]): 5.71 | Mouse Vas Deferens Ke of Naltrindole (delta receptors [4]): 0.281 | IC50 [3, 6]: 12.2 nM | Guinea Pig Ileum DR with CTAP (mu receptors): 1.13 | Guinea Pig Ileum Ke of CTAP (mu receptors): 357.14 | IC50 (κ2 sites): 324 nM

C[C@@H](NC(=O)[C@@H](N)Cc1ccc(O)cc1)C(=O)NCC(=O)N(C)[C@@H](Cc1ccccc1)C(=O)NCCO [DAMGO, [D-Ala^2,N-Me-Phe^4,Gly-ol^5]-enkephalin]
IC50 [1, 5]: 8.25 nM | Mouse Vas Deferens DR with Naltrindole (delta receptors [4]): 0.93 | Guinea Pig Ileum DR with Nor-BNI (kappa receptors): 1.74 | Guinea Pig Ileum Ke of Nor-BNI (kappa receptors): 27.67 | Guinea Pig Ileum Ratio (Nor-BNI) (kappa receptors): 0.002 | IC50 [3, 6]: 178 nM | Guinea Pig Ileum DR with CTAP (mu receptors): 4.98 | Guinea Pig Ileum Ke of CTAP (mu receptors): 25.31 | Guinea Pig Ileum Ratio (CTAP) (mu receptors): 1.000

Dynorphin (1-13)-OH
Ki (kappa3 receptors): 15.4 nM | IC50 (κ2 sites): 180 nM

C=CCN1CC[C@]23c4c5ccc(O)c4O[C@H]2[C@@H](O)C=C[C@H]3[C@H]1C5 [Nalorphine]
IC50 [1, 7]: 29.2 nM | Guinea Pig Ileum DR with Nor-BNI (kappa receptors): 643.9 | Guinea Pig Ileum Ke of Nor-BNI (kappa receptors): 0.03 | Guinea Pig Ileum DR with CTAP (mu receptors): 0.90

COc1ccc2c3c1O[C@H]1C(=O)CC[C@@]4(O)[C@@H](C2)N(C)CC[C@]314 [Oxycodone]
IC50 [1, 7]: 324 nM | Mouse Vas Deferens DR with Naltrindole (delta receptors [4]): 0.79 | Guinea Pig Ileum DR with Nor-BNI (kappa receptors): 1.45 | Guinea Pig Ileum Ke of Nor-BNI (kappa receptors): 45.84 | Guinea Pig Ileum Ratio (Nor-BNI) (kappa receptors): 0.001 | IC50 [3, 8]: 6330 nM | Guinea Pig Ileum DR with CTAP (mu receptors): 2.30 | Guinea Pig Ileum Ke of CTAP (mu receptors): 78.66 | Guinea Pig Ileum Ratio (CTAP) (mu receptors): 0.322

[D-Pen^3.5-enkephalin] [DPDPE-OH]
IC50 [1, 5]: 4130 nM | Ki (kappa3 receptors): > 1000 nM | Mouse Vas Deferens DR with Naltrindole (delta receptors [4]): 53.11 | Mouse Vas Deferens Ke of Naltrindole (delta receptors [4]): 0.021 | Mouse Vas Deferens Ratio (Naltrindole) (delta receptors [4]): 1.000 | Guinea Pig Ileum DR with Nor-BNI (kappa receptors): 1.54 | Guinea Pig Ileum Ke of Nor-BNI (kappa receptors): 50.68 | Guinea Pig Ileum Ratio (Nor-BNI) (kappa receptors): 0.001 | Guinea Pig Ileum DR with CTAP (mu receptors): 5.64 | Guinea Pig Ileum Ke of CTAP (mu receptors): 25.83 | Guinea Pig Ileum Ratio (CTAP) (mu receptors): 0.980 | IC50 (κ2 sites): > 10000 nM

COC(=O)/C=C/C(=O)N[C@@H]1CC[C@@]2(O)[C@H]3Cc4ccc(O)c5c4[C@@]2(CCN3CC2CC2)[C@H]1O5 [β-FNA-HCl]
Ki (mu opioid receptors): 0.4 nM | Ki (kappa3 receptors): 0.8 nM | IC50 (κ2 sites): 66.5 nM

Met-Enkephalin
IC50 [1, 5]: 27.4 nM | Ki (kappa3 receptors): 277 nM | Mouse Vas Deferens DR with Naltrindole (delta receptors [4]): 13.63 | Mouse Vas Deferens Ke of Naltrindole (delta receptors [4]): 0.082 | IC50 [3, 6]: 1.52 nM | Guinea Pig Ileum DR with CTAP (mu receptors): 5.08± | Guinea Pig Ileum Ke of CTAP (mu receptors): 24.50 | IC50 (κ2 sites): > 10000 nM

CCC12CCN(CC3(O)CC3)C(Cc3ccc(O)cc31)C2(C)C (single isomer, unassigned; (+)) [(+)Bremazocine]
Ki (mu opioid receptors): 0.1 nM | Ki (kappa3 receptors): 0.1 nM | Ki (delta receptors [2]; read-out: Ki δ [^3H]Cl-DPDPE): 0.7 nM | IC50 (κ2 sites): 11.2 nM

CCC12CCN(CC3CC3)C(C(=O)c3ccc(O)cc31)C2C (single isomer, unassigned; (+)) [(+)EKC-sulfonate]
Ki (mu opioid receptors): 1.1 nM | Ki (kappa3 receptors): 5.3 nM | Ki (delta receptors [2]; read-out: Ki δ, experiment done with [^3H]DPDPE): 2.6 nM | IC50 (κ2 sites): 133 nM
